Measured values from ChEMBL document CHEMBL4622884, “Synthesis of novel 3,5,6-trisubstituted 2-pyridone derivatives and evaluation for their anti-inflammatory activity” (Bioorg Med Chem, 2020).
Active and inactive are the calls of the source. The calls are words filed in the database; no cut-off is given here.

Experiments:
Mus musculus [1] = assay: Anti-inflammatory activity against croton oil-induced ear edema in Swiss mouse model assessed as inhibition of myeloperoxidase activity at 1.25 mg/ear administered topically immediately after croton oil-stimulation and measured after 6 hrs by microplate spectrophotometry relative to control; format: functional
[2] = target: T1, Prostaglandin G/H synthase 2 (Homo sapiens) (UniProt P35354); assay: Inhibition of recombinant human COX-2 at 31.25 uM by microplate reader based assay relative to control
T1 sequence (whole entry): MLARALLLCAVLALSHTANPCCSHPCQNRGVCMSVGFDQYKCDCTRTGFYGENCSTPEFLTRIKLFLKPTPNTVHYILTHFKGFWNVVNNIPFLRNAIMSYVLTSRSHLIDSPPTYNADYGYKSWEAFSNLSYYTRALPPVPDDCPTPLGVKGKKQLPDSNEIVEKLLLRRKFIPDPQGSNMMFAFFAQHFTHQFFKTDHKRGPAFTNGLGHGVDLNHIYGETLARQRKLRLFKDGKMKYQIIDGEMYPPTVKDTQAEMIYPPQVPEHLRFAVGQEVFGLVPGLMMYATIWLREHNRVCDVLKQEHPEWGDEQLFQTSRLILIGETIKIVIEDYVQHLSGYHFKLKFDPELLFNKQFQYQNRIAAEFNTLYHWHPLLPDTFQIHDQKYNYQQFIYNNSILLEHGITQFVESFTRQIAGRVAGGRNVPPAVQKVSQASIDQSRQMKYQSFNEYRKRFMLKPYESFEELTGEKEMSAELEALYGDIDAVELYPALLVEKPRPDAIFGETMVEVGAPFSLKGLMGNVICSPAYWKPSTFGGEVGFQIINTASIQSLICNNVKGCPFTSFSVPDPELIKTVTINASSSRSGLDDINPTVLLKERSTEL

Mus musculus [3] = assay: Anti-inflammatory activity against croton oil-induced ear edema in Swiss mouse model assessed as inhibition of ear edema at 0.625 mg/ear administered topically immediately after croton oil-stimulation and measured after 6 hrs relative to control; format: functional
Mus musculus [4] = assay: Anti-inflammatory activity against croton oil-induced ear edema in Swiss mouse model assessed as inhibition of myeloperoxidase activity at 0.625 mg/ear administered topically immediately after croton oil-stimulation and measured after 6 hrs by microplate spectrophotometry relative to control; format: functional
[5] = target: T1, Prostaglandin G/H synthase 2 (Homo sapiens); assay: Inhibition of recombinant human COX-2 at 1.95 uM by microplate reader based assay relative to control
Mus musculus [6] = assay: Anti-inflammatory activity against croton oil-induced ear edema in Swiss mouse model assessed as inhibition of ear edema at 1.25 mg/ear administered topically immediately after croton oil-stimulation and measured after 6 hrs relative to control; format: functional
[7] = target: T2, COX-1 (Prostaglandin G/H synthase 1) (Ovis aries, UniProt P05979); assay: Inhibition of ovine COX-1 at 1.95 uM by microplate reader based assay relative to control; details: sheep, ovine COX-1 enzyme
T2 sequence (P05979 whole entry): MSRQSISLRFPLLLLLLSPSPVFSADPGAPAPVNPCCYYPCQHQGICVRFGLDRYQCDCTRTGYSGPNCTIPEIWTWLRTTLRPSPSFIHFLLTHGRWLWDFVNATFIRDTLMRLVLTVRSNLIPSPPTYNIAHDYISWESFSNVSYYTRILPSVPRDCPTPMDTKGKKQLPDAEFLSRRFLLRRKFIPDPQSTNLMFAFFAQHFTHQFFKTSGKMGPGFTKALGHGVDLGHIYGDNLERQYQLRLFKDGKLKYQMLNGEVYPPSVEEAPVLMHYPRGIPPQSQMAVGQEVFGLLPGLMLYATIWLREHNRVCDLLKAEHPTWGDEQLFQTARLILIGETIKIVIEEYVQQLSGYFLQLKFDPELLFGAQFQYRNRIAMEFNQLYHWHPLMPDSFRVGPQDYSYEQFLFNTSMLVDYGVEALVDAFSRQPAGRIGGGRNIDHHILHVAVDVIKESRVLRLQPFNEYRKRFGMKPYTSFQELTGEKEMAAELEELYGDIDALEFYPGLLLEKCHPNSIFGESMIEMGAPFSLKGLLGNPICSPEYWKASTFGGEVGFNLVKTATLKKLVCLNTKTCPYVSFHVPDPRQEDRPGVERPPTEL

[8] = Cytotoxicity against mouse J774A1 cells assessed as reduction in cell viability measured after 48 hrs by MTT assay; format: cell-based, J774.A1
[9] = target: T2, COX-1 (Prostaglandin G/H synthase 1); assay: Inhibition of ovine COX-1 at 31.25 uM by microplate reader based assay relative to control; details: sheep, ovine COX-1 enzyme
[10] = Cytotoxicity against mouse L929 cells assessed as reduction in cell viability measured after 72 hrs by MTT assay; format: cell-based
Ovis aries = organism: Ovis aries; assay: Selectivity index, ratio of IC50 of ovine COX-1 to […]
Mus musculus [11] = assay: Anti-inflammatory activity against croton oil-induced ear edema in Swiss mouse model assessed as inhibition of ear edema at 1 mg/ear administered topically immediately after croton oil-stimulation and measured after 6 hrs relative to control; format: functional
Mus musculus [12] = assay: Anti-inflammatory activity against croton oil-induced ear edema in Swiss mouse model assessed as inhibition of myeloperoxidase activity at 1 mg/ear administered topically immediately after croton oil-stimulation and measured after 6 hrs by microplate spectrophotometry relative to control; format: functional

| SMILES | inhibition (INH) (Mus musculus [1]) | inhibition (INH) (Mus musculus [3]) | inhibition (INH) (Mus musculus [4]) | inhibition (INH) (Mus musculus [6]) | CC50 at 48 h [8] | CC50 at 72 h [10] | further results |
| --- | --- | --- | --- | --- | --- | --- | --- |
| O=C(c1ccc([N+](=O)[O-])cc1)c1cc(C(=O)O)c(=O)[nH]c1C(=O)O | 94.3% | 90.8% | 99.6% | 93% | 388 µM | 439 µM | inhibition [2]: 38.1%; inhibition [5]: 20.2%; inhibition at 1.95 µM [7]: 12.4%; inhibition at 31.25 µM [9]: 36.8% |
| CCOC(=O)c1[nH]c(=O)c(C#N)cc1C(=O)c1ccc(F)cc1 | – | – | – | – | < 100 µM | 232 µM | inhibition (Mus musculus [6]): Active |
| CS(=O)(=O)c1ccc(-c2cc(Cn3ccnc3)c3ccc(C4CCCCC4)c(C4CCCCC4)c3n2)cc1 | – | – | – | – | – | – | Ratio IC50 (Ovis aries): 548 |
| N#Cc1cc(C(=O)c2ccc(Cl)cc2)c(C(=O)O)[nH]c1=O | – | 74.5% | 84.5% | – | – | – | – |
| CCOC(=O)c1[nH]c(=O)c(C#N)cc1C(=O)c1ccc(C)cc1 | – | – | – | – | 194 µM | 512 µM | inhibition (Mus musculus [6]): Active |
| CCOC(=O)c1[nH]c(=O)c(C#N)cc1C(=O)c1ccc(OC)cc1 | – | – | – | – | < 100 µM | 259 µM | inhibition (Mus musculus [6]): Active |
| N#Cc1cc(C(=O)c2ccc([N+](=O)[O-])cc2)c(C(=O)O)[nH]c1=O | 97.6% | – | 99% | 64.6% | – | – | – |
| CCOC(=O)c1[nH]c(=O)c(C#N)cc1C(=O)c1ccc([N+](=O)[O-])cc1.CNC [listing 1 of 2 here] | 98.9% | 70% | 99% | 98.9% | < 100 µM | 257 µM | inhibition at 31.25 µM [9]: 16.3% |
| CCOC(=O)c1[nH]c(=O)c(C#N)cc1C(=O)c1ccc(Cl)cc1.CNC | 99.9% | 70.1% | 99% | 71.3% | – | – | – |
| CCOC(=O)c1[nH]c(=O)c(C#N)cc1C(=O)c1ccc(Br)cc1 | – | – | – | – | < 100 µM | 242 µM | inhibition (Mus musculus [6]): Active |
| O=C(c1ccc(Cl)cc1)c1cc(C(=O)O)c(=O)[nH]c1C(=O)O | 99% | 84% | 89.4% | 54.2% | – | – | – |
| COc1ccc2c(c1)c(CC(=O)O)c(C)n2C(=O)c1ccc(Cl)cc1 [INDOMETHACIN] | – | – | – | – | – | – | inhibition (INH) (Mus musculus [11]): 98.2%; inhibition (INH) (Mus musculus [12]): 48% |
| CCOC(=O)c1[nH]c(=O)c(C(=O)OCC)cc1C(=O)c1ccc([N+](=O)[O-])cc1 | 99% | 66.3% | 99% | 87.9% | – | – | – |
| CCOC(=O)c1[nH]c(=O)c(C#N)cc1C(=O)c1ccc([N+](=O)[O-])cc1.CNC [listing 2 of 2 here] | – | – | – | – | – | – | inhibition [2]: 10.1%; inhibition [5]: 74% |
| CCOC(=O)c1[nH]c(=O)c(C(=O)OCC)cc1C(=O)c1ccc(Cl)cc1 | 88.1% | – | 94.4% | – | – | – | – |
| CCOC(=O)c1[nH]c(=O)c(C#N)cc1C(=O)c1ccccc1 | – | – | – | – | 215 µM | 465 µM | inhibition (Mus musculus [6]): Active |
| CCOC(=O)c1[nH]c(=O)c(C#N)cc1C(=O)c1ccc(Cl)cc1 | 99% | – | 99% | 73.9% | < 100 µM | 218 µM | – |
| CCOC(=O)c1[nH]c(=O)c(C#N)cc1C(=O)c1ccc([N+](=O)[O-])cc1 | 99% | – | 99% | 93% | < 100 µM | 213 µM | – |
| CCOC(=O)c1[nH]c(=O)c(C(=O)O)cc1C(=O)c1ccc(Cl)cc1 | 93% | – | 99% | – | – | – | – |
